Consider 3 molecules from patent US20230270764A1, “COMPOSITION COMPRISING CANNABINOIDS, TERPENES, AND FLAVONOIDS FOR TREATING DEPRESSION” (priority 2020, published 2023).

The subject of one assay is LPS-injected mice. Kind of assay: Open field test in the LPS-induced model of depression. Type of assay: in vivo. Particulars: for distance travelled in the open field compared with vehicle-treated groups: Example 9, 4-6 months-old male C57BL/6, i.p. 1 h before LPS 330 µg/kg, mg/kg: CBD 30, CBDA 1 or 5, CBD 30 plus THC 10, CBD 30 plus BCP 50. The source says:
Animals were housed 2-3/cage, kept in an air-conditioned room (23+°C) and given ad libitum access to food and water. The mice were kept in a reversed light/dark cycle, with lights off from 7 a.m. to 7 p.m. All experiments were approved by the Hebrew University of Jerusalem Ethics Committee on Animal Care and Use. In preparation for the Sucrose Preference Test, mice were habituated 2-3 times to sucrose drinking, by exposing them overnight to two graduated tubes, one containing water and the other containing sucrose solution (1%, w/v). Water and sucrose consumption were measured, and sucrose preference was computed by dividing the amount of sucrose consumed by drinking (ml sucrose) by the total drinking volume (ml of sucrose + water). One day later, the weight of the mice and the food in their cages was weighed for later analysis of food consumption and body weight changes. Groups of mice were injected intraperitoneally (i.p.) with either vehicle (cremophor, ethanol and PBS, 1:1:18 (v/v/v)) or a cannabinoid-based formulation (by itself or with another cannabinoid, or a terpene or a flavonoid). One hour later, each of these groups was injected with LPS (330 µg/kg). All injections were administered at a dose of 10 ml/kg. Four hours following the LPS injection, mice were tested in the Open-Field Test. In this test, the measured locomotor activity reflects not only motor capacity, but particularly the innate motivation for spatial exploration (which increases the distance travelled) and the anxiety level (which reduces the distance travelled, in general, and particularly the distance and time spent in the center of the open field). Each subject was placed near one of the walls of a white 50 X 50 cm^2 arena with 40 cm high walls. The distance travelled (cm), the velocity of the movement (cm/second), the time spent (seconds), distance travelled (cm) in the center area of the arena, as well as the number of entries from the perimeter area into the center of the arena were automatically measured over a 4-minute period, using EthoVision XT video tracking system and software (Noldus, The Netherlands). Twenty-four hours after the LPS injection, mice were tested in the Social Exploration Test. In this test, the subject was placed in an observation cage containing a small metal wire mesh cage with a conspecific mouse inside it. Social exploration, defined as the time of near contact between the nose of the subject and the juvenile in the small cage was recorded for 4 min, using computerized in-house software. Sucrose preference was assessed, as described above, between 8 to 27 hr post LPS injection. Body weight and weight of the food were measured two hours before the LPS injection, and again after 24 hours, and the change in body weight and food consumption were calculated.
This particular study was conducted in several experimental cohorts, and not all compounds and all measures were studied in all cohort. However, each cohort included a vehicle-treated group; therefore, the scores in each behavioral test were converted to % of mean vehicle-treated group in every individual cohort/experiment. Statistical comparisons were computed using SPSS software and consisted of one-way analyses of variance (ANOVA), followed by post-hoc comparisons with the Student-Newman-Keuls method. […]

In a further assay the test system is BV2 microglial cells. Description: LPS-induced IL-1β release by BV2 microglia cell cultures (ELISA). Type of assay: cell-based, murine. Particulars: for IL-1β secretion vs Veh plus LPS: Example 4, by itself at 5 µM, not at 1 or 2.5 µM; for IC50: Mus musculus. The procedure:
The BV2 murine microglial cell line is used in these studies.
The BV2 cells are cultured at 37° C. in a humidified atmosphere with 5% CO2 in high D-glucose (4.5 g/L) Dulbecco’s modified Eagle’s medium (Sigma, Rehovot, Israel) supplemented with 5% heat-inactivated fetal bovine serum, streptomycin (100 µg/ml), and penicillin (100 units/ml) and sodium pyruvate (1 mM; all from Biological Industries Ltd., Kibbutz Beit Haemek, Israel). 24 hours before experiments with LPS stimulation, the BV2 cells are split into 24 well plates, 2×10^5 cells per well, covered with 1 ml of growth medium and allowed to attach overnight. 24 hr before experiments with α-synuclein, the BV2 cells are split into 96-well plates, 50,000 (5×10^4) cells per well, covered with 200 µl of growth medium and allowed to attach overnight. Cultures of BV2 microglia cells are first treated by an individual cannabinoid, or terpene or flavonoid selected from: Cannabidiol (CBD), Δ-9-tetrahydrocannabinol (THC), Δ-8-tetrahydrocannabinol (THC), cannabigerol (CBG), cannabichromene (CBC), cannabigerolic acid (CBGA), Cannabidiolic acid (CBDA), THC acid (THCA), cannabichromenic Acid (CBCA), Cannabidivarin (CBDV), tetrahydrocannabivarin (THCV), Cannabichromevarin (CBCV), Cannabichromerocin ([…]), Cannabivarin (CBV), Cannabicitran (CBT), Cannabinol (CBN), Cannabicyclol (CBL), Cannabigerorcin (CBGO), Cannabinodiol (CBND), β-caryophyllene, β-elemene, β-myrcene, linalool, α-pinene, β-pinene, eucalyptol, alpha-terpineol, valencene, geraniol (lemonol), bisabolol, nerolidol, ocimene, terpinolene, humulene, α-terpinene, camphene, fenchol, α-phellandrene, Δ3-carene, γ-cardinene, sabinene, limonene, β-amyrin, cycloartenol, cannflavin A, cannflavin B, kaempferol, quercetin, luteolin, apigenin, canniprene, orientin, β-sitosterol, vitexin, isovitexin, and chrysin. Additional cultures of BV2 microglia cells are treated by an individual cannabinoid, with at least one additional cannabinoid, and/or terpene, and/or flavonoid, and/or celecoxib. Additional cultures are exposed to the vehicle of these compounds (cremophor, ethanol and PBS, 1:1:18 (v/v/v)) (FIG. 2A). In some studies, cultures of BV2 microglia cells are treated by a specific whole plant cannabis extract, with or without supplementation with cannabinoid(s), and/or terpene(s) and/or flavonoid(s), and/or celecoxib (FIG. 2B).
For each individual cannabinoid mentioned above, 3-4 concentrations are used, ranging from 0.1 to 10 µM. For ultra-low dose Δ9-THC the concentration used is 0.01 µM. For each individual terpene or flavonoid mentioned above, 3-4 concentrations are used, ranging from 1 to 50 µM. For celecoxib, 3-4 concentrations are used, ranging from 0.1 to 10 µM. Two hours following the treatment, the cultures are exposed to one of the following microglia stimulators: LPS (Sigma L2630; Escherichia coli serotype O111:B4) is dissolved in D-PBS (Sigma, D8537) to a pre-stock concentration of 1 mg/ml, aliquoted and stored at -80° C. Stock solution of LPS at 10 ug/ml is prepared using sterile D-PBS, followed by filtering via 0.22 µm filter membrane, aliquoting and storing in -20° C. LPS is applied into the cell medium at a final concentration of 100 ng/ml. Poly I:C (Sigma, P1530) was first dissolved in sterile, molecular grade water to the concentration of 10 mg/ml (following the manufacturer’s instructions). This stock solution was further diluted to the concentration of 1 mg/ml in sterile PBS, and the aliquots stored in -20 °C.
(In general: An ELISA detects its analyte on a solid surface through an enzyme-linked reagent.)

Structures are written as SMILES. Like-named read-outs stand apart in the source and are kept apart here.

One may read the IC50 as the concentration at which inhibition is half-maximal. As to `C=C(C)[C@@H]1CCC(C)=C[C@H]1c1c(O)cc(CCCCC)cc1O` [CBD, cannabidiol], the “distance travelled in the open field compared with vehicle-treated groups” value with LPS-injected mice is reported as “significantly increased distance travelled”. For the same molecule, in the assay with LPS-injected mice (Example 18, 7 months-old male mice, 3 daily i.p. injections, LPS 250 µg/kg, CLX 10 and 20 mg/kg or CBD 30 mg/kg by themselves), the “distance travelled in open field vs vehicle-LPS group” value was “did not have significant effects”. Moreover, the “number of entries into the center area vs vehicle-LPS group” value with LPS-injected mice (Example 18, CBD 30 mg/kg by itself) was “no significant effects”. The “distance moved in the center of the open field vs vehicle-LPS group” value in the assay on LPS-injected mice (Example 18, celecoxib 10, 20, 30 mg/kg or CBD 30 mg/kg by themselves) is “no significant effects”. Also, the “distance travelled in the open field test” value in the assay on LPS-injected mice (adult (6-9 months-old) and young adult (2.5-3 months old) female mice, acute CBD, saline or LPS) is “None of these parameters was influenced by treatment with CBD”. In the assay on LPS-injected mice (adult (6-9 months-old) male mice, acute CBD 30 mg/kg), the “distance traveled in the open field test, LPS-injected groups” value is reported as “significantly attenuated the suppressive effect of LPS”. In addition, the “LPS-induced decrease in distance moved in the open field test” value in the assay on LPS-injected mice (young adult (2.5-3 months old) male mice, acute CBD) is reported as “None of these parameters was influenced by treatment with CBD”. The “attenuation of LPS effect on distance travelled in the open field test” value in the assay on LPS-injected mice (young-adult male mice, CBD 30 mg/kg i.p. 3 consecutive days, last 1 hr before LPS 330 µg/kg) is recorded as “did not reach statistical significance”. Moreover, the IL-1β levels result in the assay with BV2 microglial cells (Example 3, 5 and 10 µM) is “effectively reduced”. Further, the “IL-1β secretion vs Veh plus LPS” value in the assay on BV2 microglial cells is on record as “effective in decreasing IL-1β”. In addition, the “IL-1β release vs Veh plus LPS” value with BV2 microglial cells (Example 5, alone at 5 µM, no effect at 1 and 2.5 µM) is reported as “decreased the IL-1β levels significantly”. In the assay on BV2 microglial cells (Example 7, CBD 5 µM by itself (p<0.001)), the “LPS-induced IL-1β secretion” value is listed as “significant suppression of IL-1β secretion”. The “LPS-induced IL-1β release” value in the assay with BV2 microglial cells (Example 25, CannA, CannB 2.5, 5 and 10 µM, CBD, CannC 5 and 10 µM) is “significantly reduced”. For the same molecule, the IC50 was determined as 3.3 µM with BV2 microglial cells (BV-2, read-out: CBD IC50, LPS-induced IL-1β release, Example 4, addition of 1 µM kaempferol); 2.1 µM in the assay on BV2 microglial cells (BV-2, read-out: CBD IC50, LPS-induced IL-1β release, Example 4, addition of 2.5 µM kaempferol); 1.1 µM in the assay with BV2 microglial cells (BV-2, read-out: CBD IC50, LPS-induced IL-1β release, Example 4, addition of 5 µM kaempferol); 2.1 µM in the assay on BV2 microglial cells (BV-2, read-out: CBD IC50, LPS-induced IL-1β release, Example 5, addition of 1 µM quercetin); 1.7 µM in the assay with BV2 microglial cells (BV-2, read-out: CBD IC50, LPS-induced IL-1β release, Example 5, addition of 2.5 µM quercetin); 0.5 µM in the assay on BV2 microglial cells (BV-2, read-out: CBD IC50, LPS-induced IL-1β release, Example 5, addition of 5 µM quercetin). The 50% inhibitory concentration (IC50) in the assay on BV2 microglial cells (BV-2, read-out: IC50 for IL-1β inhibition, Example 25 (FIG. 25F), extracts calculated on dominant cannabinoid) is 4.7 µM; with BV2 microglial cells (BV-2, read-out: IC50 for inhibiting LPS-induced IL-1β release, Example 4 (FIG. 5D), by itself), 4.5 µM; in the assay on BV2 microglial cells (BV-2, read-out: IC50 for inhibiting LPS-induced IL-1β release, Example 5 (FIG. 6D), by itself) it was 3.3 µM.
On to `C=C(C)[C@@H]1CCC(C)=C[C@H]1c1c(O)cc(CCCCC)c(C(=O)O)c1O` [CBDA, Cannabidiolic acid], for which, in the assay on LPS-injected mice, the “distance travelled in the open field compared with vehicle-treated groups” value is “significantly increased distance travelled”. Further, the “open field distance vs Vehicle-treated LPS-injected mice” value in the assay on LPS-injected mice (young-adult female mice, CBDA 5 mg/kg (not 0.5 or 1)) is given as “significantly increased”.
Take `O=c1c(O)c(-c2ccc(O)cc2)oc2cc(O)cc(O)c12` [kaempferol]: in the assay on LPS-injected mice (adult female mice, kaempferol 60 mg/kg by itself or together with CBD 30 mg/kg), the “open-field activity compared with the Veh-treated LPS group” value is “significant elevation in open-field activity”. The “IL-1β secretion vs Veh plus LPS” value in the assay on BV2 microglial cells is reported as “effective in decreasing IL-1β”. Also, in the assay with BV2 microglial cells (BV-2, Example 4 (FIG. 5D), by itself, read-out: IC50 for inhibiting LPS-induced IL-1β release), the IC50 was determined as 6.2 µM.
